Source: patent EP1222194B1, “7-ACYLAMINO-3-HETEROARYLTHIO-3-CEPHEM CARBOXYLIC ACID ANTIBIOTICS AND PRODRUGS THEREOF” (priority 1999, dated 2001)
In brackets after ≈: the same amount, converted by molar mass.

Legend:
E. coli ATCC25992 = experiment: Broth microdilution MIC (NCCLS); format: cell-based; conditions: Escherichia coli, Mueller-Hinton Broth, 24 h at 35 °C
Method: (§1) Compounds were evaluated for antimicrobial activity against a panel of bacterial strains using a broth microdilution assay performed as recommended by the NCCLS (1). The minimum inhibitory concentration (MIC) was defined as the lowest concentration of drug which prevented the growth of the bacteria. The following 16 organisms constituted the primary panel of evaluation:
(§2) For this primary panel, the assay was performed in Mueller-Hinton Broth (MHB) with a final bacterial inoculum of 5 x 10^5 CFU/mL (from an early-log phase culture) and a final volume of 100 µL. Control drugs, including imipenem, vancomycin, Penicillin G, dicloxacillin (vs. MSSA ATCC29213 only), and new compounds were prepared at a concentration equivalent to 2-fold the desired final concentration. Dilution of compounds were prepared directly in the plates by serial 2-fold dilution using a multichannel pipette. Positive and negative growth control were included in each plate.
(§3) The bacterial inocula were prepared as follows. For each strain one isolated colony was used to inoculate a volume of 8 mL of Mueller-Hinton broth and these cultures were incubated overnight (20h) at 35 °C in a shaking incubator. At the exception of Enterococcus strains, culture were then diluted 1:10 and allowed to grow for an additional one hour at 35 °C in a shaking incubator. The inocula were prepared by diluting the early log-phase (1h) cultures 1:1000 with fresh Mueller-Hinton broth. E. faecium and E. faecalis were prepared by diluting overnight cultures 1:333 and 1:666, respectively, with fresh Mueller-Hinton broth . A volume of 50 µL of the inocula was added to each well. […] The exact inocula were determined by applying […] of 10-fold serial dilution of the bacterial suspensions on TSA. After overnight incubation at 35 °C, colony forming units were manually counted.
(§4) Microtiter plates were incubated during 24 h at 35 °C and were read using a microtiterplate reader (Molecular Devices) at 650 nm as well as by visual observation using a microtiterplate reading mirror.

E. faecalis ATCC 29212 = experiment: Broth microdilution MIC (NCCLS); format: cell-based; conditions: Enterococcus faecalis, ATCC29212, Mueller-Hinton Broth, 24 h at 35 °C
Method: as §1, §2, §3, §4

E. faecalis VanB (Van^R) = experiment: Broth microdilution MIC (NCCLS); format: cell-based; conditions: Enterococcus faecalis, Mueller-Hinton Broth, 24 h at 35 °C
Method: as §1, §2, §3, §4

E. faecium A491 (Amp^R) = experiment: Broth microdilution MIC (NCCLS); format: cell-based; conditions: Enterococcus faecium, Mueller-Hinton Broth, 24 h at 35 °C
Method: as §1, §2, §3, §4

E. faecium ATCC 35667 = experiment: Broth microdilution MIC (NCCLS); format: cell-based; conditions: Enterococcus faecium, ATCC35667, Mueller-Hinton Broth, 24 h at 35 °C
Method: as §1, §2, §3, §4

E. faecium VanA (Van^R) = experiment: Broth microdilution MIC (NCCLS); format: cell-based; conditions: Enterococcus faecium, Mueller-Hinton Broth, 24 h at 35 °C
Method: as §1, §2, §3, §4

P. aeruginosa ATCC 27853 = experiment: Broth microdilution MIC (NCCLS); format: cell-based; conditions: Pseudomonas aeruginosa, ATCC27853, Mueller-Hinton Broth, 24 h at 35 °C
Method: as §1, §2, §3, §4

[1] = test system: S. aureus 76 (Meth^R)(lac^+); experiment: Broth microdilution MIC (NCCLS); format: cell-based; conditions: Staphylococcus aureus, Mueller-Hinton Broth, 24 h at 35 °C
Method: as §1, §2, §3, §4

[2] = test system: S. aureus ATCC 13709 (Meth^S); experiment: Broth microdilution MIC (NCCLS); format: cell-based; conditions: Staphylococcus aureus, ATCC13709, Mueller-Hinton Broth, 24 h at 35 °C
Method: as §1, §2, §3, §4

S. aureus ATCC 29213 = experiment: Broth microdilution MIC (NCCLS); format: cell-based; conditions: Staphylococcus aureus, ATCC29213, Mueller-Hinton Broth, 24 h at 35 °C
Method: as §1, §2, §3, §4

[3] = test system: S. aureus ATCC 33593 (Meth^R); experiment: Broth microdilution MIC (NCCLS); format: cell-based; conditions: Staphylococcus aureus, ATCC33593, Mueller-Hinton Broth, 24 h at 35 °C
Method: as §1, §2, §3, §4

[4] = test system: S. aureus Spain #356 (Meth^R); experiment: Broth microdilution MIC (NCCLS); format: cell-based; conditions: Staphylococcus aureus, Mueller-Hinton Broth, 24 h at 35 °C
Method: as §1, §2, §3, §4

[5] = test system: S. haemolyticus 05 (Meth^R); experiment: Broth microdilution MIC (NCCLS); format: cell-based; conditions: Staphylococcus haemolyticus, Mueller-Hinton Broth, 24 h at 35 °C
Method: as §1, §2, §3, §4

[6] = In vitro stability of compounds in rat serum; format: in vitro ADME; conditions: for degraded at 1 h: % loss after 60 min exposure to rat serum as determined by HPLC, 37 °C; for stability in rat serum (statement in words): compared with other 7-acylamino-3-heteroarylthio-3-cephem carboxylic acids
Method: In general, compounds from the class of 7-acylamino-3-heteroarylthio-3-cephem carboxylic acids have higher chemical reactivity and lower stability towards chemical or enzymatic decomposition than most typical cephalosporins. […] Results shown in Table 2 represent percentage loss of the initial amount of cephalosporin compound upon 60 min incubation in rat serum.
Procedure for measuring degree of degradation of cephalosporin compounds in rat serum was as follows:
Fresh control rat serum (heparinized and stored frozen) is preincubated at 37 °C for 15 min in a shaking water bath. pH is measured using test strips. 25 µL of a 2 mg/mL solution cephalosporin compound (in water) of is then added to each matrix to make 1000 µL. Solutions were incubated at 37 °C. 100ul of solution was taken out at time = 0, 15, 30, and 60 min post dose and added 200 µL 4% trichloroacetic acid, vortexed, and centrifuged for 10 min at 14,000 rpm in an Eppendorfmicrocentrifuge. 25 µL of each supernatant was injected onto HPLC. Experiment was repeated using 25 µL of a 0.2 mg/mL cephalosporin compound. Degradation is measured as the percentage of HPLC peak area at time t relative to peak area at time 0.
HPLC conditions: Beckman Ultrasphere C18 column. 5u. 4.6mm x 25cm. 1 mL/min of 95% 0.1 M ammonium acetate, pH 6, 5% ACN going to 75% buffer/organic over 20min. UV monitored at 254 and 280 nm.

| SMILES | MIC (E. coli ATCC25992) [µg/mL] | MIC (E. faecalis ATCC 29212) [µg/mL] | MIC (E. faecalis VanB (Van^R)) [µg/mL] | MIC (E. faecium A491 (Amp^R)) [µg/mL] | MIC (E. faecium ATCC 35667) [µg/mL] | MIC (E. faecium VanA (Van^R)) [µg/mL] | MIC (P. aeruginosa ATCC 27853) [µg/mL] | MIC [1] [µg/mL] | MIC [2] [µg/mL] | MIC (S. aureus ATCC 29213) [µg/mL] | MIC [3] [µg/mL] | MIC [4] [µg/mL] | MIC [5] [µg/mL] | degraded at 1 h [6] [%] | stability in rat serum (statement in words) [6] |
| --- | --- | --- | --- | --- | --- | --- | --- | --- | --- | --- | --- | --- | --- | --- | --- |
| N=C(N)NCCSCc1ncccc1SC1=C(C(=O)O)N2C(=O)[C@@H](NC(=O)/C(=N\O)c3nc(N)sc3Cl)[C@H]2SC1 [Cmpd 2-S, (7R)-7-[(Z)-2-(2-amino-5-chlorothiazol-4-yl)-2-(hydroxyimino)acetamido]-3-[2-(2-guanidinoethylthiomethyl)pyrid-3-ylthio]-3-cephem-4-carboxylic acid] | 4 (≈ 6.21 µM) | 0.06 (≈ 0.0931 µM) | 0.06 (≈ 0.0931 µM) | 4 (≈ 6.21 µM) | 0.25 (≈ 0.388 µM) | 0.5 (≈ 0.776 µM) | > 32 | 0.5 (≈ 0.776 µM) | 0.06 (≈ 0.0931 µM) | 0.13 (≈ 0.202 µM) | 0.5 (≈ 0.776 µM) | 0.5 (≈ 0.776 µM) | 1 (≈ 1.55 µM) | 38 | improved stability |
| NCCSCc1ncccc1SC1=C(C(=O)O)N2C(=O)[C@@H](NC(=O)/C(=N\O)c3nc(N)sc3Cl)[C@H]2SC1 [Cmpd 1, (7R)-7-[(Z)-2-(2-amino-5-chlorothiazol-4-yl)-2-(hydroxyimino)acetamido]-3-[2-(2-aminoethylthiomethyl)pyrid-3-ylthio]-3-cephem-4-carboxylic acid] | 4 (≈ 6.64 µM) | 0.06 (≈ 0.0996 µM) | 0.13 (≈ 0.216 µM) | 8 (≈ 13.3 µM) | 0.5 (≈ 0.83 µM) | 1 (≈ 1.66 µM) | 32 (≈ 53.1 µM) | 1 (≈ 1.66 µM) | 0.13 (≈ 0.216 µM) | – | 1 (≈ 1.66 µM) | 1 (≈ 1.66 µM) | 1 (≈ 1.66 µM) | 9 | improved stability |
| NCCSCc1ncccc1SC1=C(C(=O)O)N2C(=O)[C@@H](NC(=O)/C(=N\O)c3nsc(N)n3)[C@H]2SC1 [Cmpd 2, (7R)-7-[(Z)-2-(5-amino-1,2,4-thiadiazol-3-yl)-2-(hydroxyimino)acetamido]-3-[2-(2-aminoethylthiomethyl)pyrid-3-ylthio]-3-cephem-4-carboxylic acid] | 1 (≈ 1.76 µM) | 1 (≈ 1.76 µM) | 0.5 (≈ 0.879 µM) | > 32 | 1 (≈ 1.76 µM) | 2 (≈ 3.52 µM) | > 32 | 1 (≈ 1.76 µM) | – | – | 1 (≈ 1.76 µM) | 1 (≈ 1.76 µM) | 2 (≈ 3.52 µM) | 2 | improved stability |
| NCCSCc1ccncc1SC1=C(C(=O)O)N2C(=O)[C@@H](NC(=O)/C(=N\O)c3nc(N)sc3Cl)[C@H]2SC1 [Cmpd 3, (7R)-7-[(Z)-2-(2-amino-5-chlorothiazol-4-yl)-2-(hydroxyimino)acetamido]-3-[4-(2-aminoethylthiomethyl)pyrid-3-ylthio]-3-cephem-4-carboxylic acid] | 4 (≈ 6.64 µM) | 0.13 (≈ 0.216 µM) | 0.5 (≈ 0.83 µM) | 32 (≈ 53.1 µM) | 1 (≈ 1.66 µM) | 2 (≈ 3.32 µM) | 32 (≈ 53.1 µM) | 1 (≈ 1.66 µM) | 0.13 (≈ 0.216 µM) | 0.13 (≈ 0.216 µM) | 1 (≈ 1.66 µM) | 1 (≈ 1.66 µM) | 2 (≈ 3.32 µM) | 3 | improved stability |
| N=C(N)NCCSCc1ncccc1SC1=C(C(=O)O)N2C(=O)[C@@H](NC(=O)/C(=N\O)c3nsc(N)n3)[C@H]2SC1 [Cmpd 2-R, (7R)-7-[(Z)-2-(5-amino-1,2,4-thiadiazol-3-yl)-2-(hydroxyimino)acetamido]-3-[2-(2-guanidinoethylthiomethyl)pyrid-3-ylthio]-3-cephem-4-carboxylic acid] | 1 (≈ 1.64 µM) | 1 (≈ 1.64 µM) | – | 32 (≈ 52.4 µM) | 0.5 (≈ 0.819 µM) | 1 (≈ 1.64 µM) | > 32 | 1 (≈ 1.64 µM) | 0.13 (≈ 0.213 µM) | 0.13 (≈ 0.213 µM) | 1 (≈ 1.64 µM) | 1 (≈ 1.64 µM) | 2 (≈ 3.27 µM) | 10 | improved stability |
